This experiment relates to normal, non-HF ovine model. As to the kind of experiment: Change in contractility (max(dP/dt) from pressure measurements as surrogate) and beat-by-beat correlation of right and left ventricle contractility after an injection. Conditions: for Contractility % Increase: after the injection, max(dP/dt) used as surrogate for contractility. It counts as in vivo. From the text:
The correlation was a heartbeat-by-heartbeat analysis. Pressure measurements, taken by a Millar catheter comprising a MEMS pressure sensor, in units of max(dP/dt) was used as a surrogate for contractility.
The first change, a dobutamine injection, provided a very high contractility increase greater than 500%. The average correlation between right ventricle contractility and left ventricle contractility was very good at 0.91, where 1.00 is a perfect correlation. Accordingly, if a subject is given a dobutamine injection, measuring changes to right ventricle contractility can provide accurate information about changes to left ventricle contractility. The first change was repeated three times.
The second change, calcium injection at 5 mL, provided a contractility increase of about 20%. […] The average correlation between right ventricle contractility and left ventricle contractility using a Millar (MEMS) sensor on a catheter was very good at 0.91. The average correlation between right ventricle contractility and left ventricle contractility using a fluid-filled lumen of a Swan-Ganz catheter in communication with an external pressure sensor was also very good at 0.87. Accordingly, under certain circumstances such as measurement of an animal (normal, non-HF ovine model) model, if a subject is given a calcium injection, measuring changes to right ventricle contractility with a MEMS sensor or a fluid filled lumen can provide accurate information about changes to left ventricle contractility.
The fourth change, neurostimulation as described herein, provided a contractility increase of about 28%. The correlation between right ventricle contractility and left ventricle contractility was very good at 0.90. Accordingly, if a subject is given neurostimulation, measuring changes to right ventricle contractility can provide accurate information about changes to left ventricle contractility. […] Thereafter, the left ventricle contractility tapered off logarithmically or exponentially, but the right ventricle contractility decreased very slowly. These differences help to show why the correlation between left ventricle contractility and right ventricle contractility are poorly correlated for calcium injections. The fourth change was not repeated.

Setting [1] is: first several beats after the injection.

Experimental findings from US11229398B2, “Electrode assemblies for neurostimulation treatment” (Cardionomic, Inc., priority 2016, dated 2022) are described below.

On to calcium [Calcium Injection (5 mL)], for which the “Contractility % Increase” value is about 20%. The “Contractility % Increase” value (listed as calcium injection) is listed as “about 20%”. Moreover, under setting [1], the left ventricle contractility result is recorded as “increased dramatically” and the right ventricle contractility result is “only slightly increased”.
